The Kd is the constant that tells how readily two partners part at equilibrium. One may read the Aqueous Solubility as the dissolved amount per volume that the medium holds. The low end stands for a poorly soluble substance, the high end for a readily soluble substance.

The target of series [1] is T1, recombinant EphA4 ligand binding domain (Homo sapiens, UniProt P54764, C204A).
T1 construct: His tag (N); made in house; host or cells: E. coli Rosetta-Gami B(DE3), pET15b
Put plainly: Isothermal titration calorimetry (ITC) against EphA4-LBD. How it is done: Peptides were synthesized by using standard solid-phase synthesis protocol, using the BAL resin as anchoring for the C-terminal amines. Isothermal Titration Calorimetry (ITC) measurements were performed in a reverse fashion by titrating the protein into the ligand solution. Solution nuclear magnetic resonance (NMR) experiments were conducted on a 700 MHz Bruker Avance spectrometer equipped with a TCI cryoprobe. Each protein sample was dissolved into an NMR tube at a final concentration of 20 μM (1% DMSO-d6) in the presence of 20 μM of each compound.
The fragments were transformed into Rosetta-Gami B(DE3) competent cells and grown in LB medium at 37° C. with 100 μg/mL of ampicillin until reaching an OD600 of 0.6-0.7 followed by induction with 0.4 mM IPTG overnight at 20° C. Bacteria were then collected by centrifugation and lysed by sonication at 4° C. […] EphA4 LBD with ^13C^ε/^1H^ε-Met labeled was expressed like previously described but adding a suspension of 100 mg of ^13C^ε/^1H^ε-Methionine in 1 mL of DMSO per liter of LB medium, 10 minutes before induction. […] Transformation, expression, and purification of EphA3-LBD chimera was performed as described above for EphA4-LBD.
Isothermal titration calorimetry (ITC) measurements were performed using the Affinity ITC Autosampler from TA Instruments (New Castle, Del.). The titrations were performed in a reverse fashion by titrating the protein into the ligand solution. […] The syringe was filled with a 100 μM solution of EphA4-LBD, EphA3-LBD Chimera, or EphA2-LBD, and 20 injections of 2.5 μL each were performed into the cell containing a 20 μM solution of the compounds. The injections were made at 200 s or 400 s intervals with a stirring speed of 75 rpm. All the solutions were kept in the autosampler at 4° C. The analysis of the thermodynamics signatures and for dissociation constant determination was performed by the NanoAnalyze software (TA Instruments, New Castle, Del.) and subsequently exported into Microsoft Excel.
Background: Isothermal titration calorimetry measures the heat released or taken up as one component is titrated into another.

In series [2] the target is T2, ^13C^ε-Met-labeled EphA4-LBD (Homo sapiens, UniProt P54764, C204A).
T2 construct: His tag (N); made in house; host or cells: E. coli Rosetta-Gami B(DE3), pET15b
T2 sequence (P54764 29-209 C204A): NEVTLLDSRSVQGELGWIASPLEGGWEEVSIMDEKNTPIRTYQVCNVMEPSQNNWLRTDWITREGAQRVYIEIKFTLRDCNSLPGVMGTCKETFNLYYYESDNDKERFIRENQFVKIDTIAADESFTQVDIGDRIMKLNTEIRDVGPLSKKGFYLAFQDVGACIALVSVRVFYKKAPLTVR
Kind of series: 2D [13C,1H] HSQC NMR chemical shift perturbation of Met resonances. Type of series: binding. The following applies: for Δδ ^13C^ϵ/^1H^ϵ Met 164: protein 20 μM, 20 μM of each compound; for Δδ Met 60 / Δδ Met 115 / Δδ Met 164: test ligands at 40 μM, EphA4-LDB at 20 μM, Table 8. On the procedure: Peptides were synthesized by using standard solid-phase synthesis protocol, using the BAL resin as anchoring for the C-terminal amines. Isothermal Titration Calorimetry (ITC) measurements were performed in a reverse fashion by titrating the protein into the ligand solution. Solution nuclear magnetic resonance (NMR) experiments were conducted on a 700 MHz Bruker Avance spectrometer equipped with a TCI cryoprobe. […]
2D [^13C,^1H] correlation NMR spectra measured with such protein targets, collected in absence or presence of test ligands can be used to monitor ligand binding and make, albeit qualitative, determinations on possible conformational changes induced by test ligands on the protein target. […] In targeting EphA4, an important aspect regarding the activity of its ligands is whether these agents could be predicted to work as antagonists or agonists.
NMR spectra were acquired on Bruker Avance III 700 MHz spectrometer equipped with a TCI cryoprobe. All NMR data were processed and analyzed using TOPSPIN 3.6.1 (Bruker, Billerica, Mass., USA).
Chemical shift changes (A) in the 2D [^13C, ^1H] spectra were calculated as weight average perturbations observed in the ^1H and ^13C dimensions using the following Equation: […]

A further series in a line: Aqueous solubility. Type of series: physicochemical.
[3] abbreviates: ITC with the ligand binding domain, Table 8, read-out: Kd (nM) vs EphA4.

Like-named read-outs stand apart in the source and are kept apart here. Square brackets hold non-standard residues; d marks the D form. Peptide text beside a SMILES is read from it. * marks the point of attachment. Phe(4-(2-MeO-Ph)) = COc1ccccc1-c1ccc(C[C@H](N)C(=O)O)cc1; Cyclohexanoyl(1S,3S-3-NH2) = N[C@H]1CCC[C@H](C(=O)*)C1; Trp(5-OMe) = COc1ccc2[nH]cc(C[C@H](N)C(=O)O)c2c1; Trp(5-OH) = N[C@@H](Cc1c[nH]c2ccc(O)cc12)C(=O)O; NHPh(4-CH2-morpholino) = c1cc(N*)ccc1CN1CCOCC1; NH(4-morpholinophenyl) = c1cc(N2CCOCC2)ccc1N*; Bip = N[C@@H](Cc1ccc(-c2ccccc2)cc1)C(=O)O; hArg = N=C(N)NCCCC[C@H](N)C(=O)O; X2 = Fc1cc(N*)ccc1N1CCOCC1; X3 = c1cc(N2CCNCC2)ccc1N* Where only a bound is given, the exact number is not on record here.

T1 sequence (P54764 29-209 C204A): as above

As to `COc1ccccc1-c1ccc(C[C@H](NC(=O)[C@H](Cc2c[nH]c3ccc(O)cc23)NC(=O)[C@H]2CCC[C@H](N)C2)C(=O)N[C@@H](CCCCNC(=N)N)C(=O)NCC(=O)Nc2ccc(CN3CCOCC3)cc2)cc1` [Compound 2, (1S,3S)-3-amino-N—((S)-1-(((S)-1-(((S)-6-guanidino-1-((2-((4-(morpholinomethyl)phenyl)amino)-2-oxoethyl)amino)-1-oxohexan-2-yl)amino)-3-(2′-methoxy-[1,1′-biphenyl]-4-yl)-1-oxopropan-2-yl)amino)-3-(5-hydroxy-1H-indol-3-yl)-1-oxopropan-2-yl)cyclohexane-1-carboxamide] ({Cyclohexanoyl(1S,3S-3-NH2)}-[Trp(5-OH)][Phe(4-(2-MeO-Ph))][hArg]G-{NHPh(4-CH2-morpholino)}), the Kd in series [1] was 75 nM. In series [1] (setting [3]), the Kd was 77 nM. Moreover, in series [1] (ITC, EphA4-LBD), the “-TΔS” value was -0.97 kcal/mol and the “AH” value was -8.74 kcal/mol. For the same compound, in series [2], the “Δδ ^13C^ϵ/^1H^ϵ Met 164” value is given as “+ (0< + <0.1 ppm)”, the “Δδ Met 60” value is “++ (0.1 ppm < ++ <0.2 ppm)”, the “Δδ Met 115” value is reported as “+ (0< + <0.1 ppm)” and the “Δδ Met 164” value is “+ (0< + <0.1 ppm)”. Besides, in “Aqueous solubility”, the “Aqueous Solubility” value is given as >50 mM.
Take `COc1ccccc1-c1ccc(C[C@H](NC(=O)[C@H](Cc2c[nH]c3ccc(O)cc23)NC(=O)[C@H]2CCC[C@H](N)C2)C(=O)N[C@@H](CCCCNC(=N)N)C(=O)NCC(=O)Nc2ccc(N3CCOCC3)c(F)c2)cc1` [Compound 16] ({Cyclohexanoyl(1S,3S-3-NH2)}-[Trp(5-OH)][Phe(4-(2-MeO-Ph))][hArg]G-X2): the Kd in series [1] came to 127 nM. In addition, in series [1] (ITC, EphA4-LBD), the “-TΔS” value came to 0.58 kcal/mol and the “AH” value was -10.00 kcal/mol. For the same compound, the “Δδ ^13C^ϵ/^1H^ϵ Met 164” value in series [2] is given as “+ (0< + <0.1 ppm)”.
Consider `N=C(N)NCCCC[C@H](NC(=O)[C@H](Cc1ccc(-c2ccccc2)cc1)NC(=O)[C@H](Cc1c[nH]c2ccc(O)cc12)NC(=O)[C@H]1CCC[C@H](N)C1)C(=O)NCC(=O)Nc1ccc(CN2CCOCC2)cc1` [Compound 9, (1S,3S)—N—((S)-1-(((S)-3-([1,1′-biphenyl]-4-yl)-1-(((S)-6-guanidino-1-((2-((4-(morpholinomethyl)phenyl)amino)-2-oxoethyl)amino)-1-oxohexan-2-yl)amino)-1-oxopropan-2-yl)amino)-3-(5-hydroxy-1H-indol-3-yl)-1-oxopropan-2-yl)-3-aminocyclohexane-1-carboxamide] ({Cyclohexanoyl(1S,3S-3-NH2)}-[Trp(5-OH)][Bip][hArg]G-{NHPh(4-CH2-morpholino)}), for which, in series [1] (setting [3]), the Kd was 144 nM. In addition, in series [1] (ITC, EphA4-LBD), the “-TΔS” value was -1.90 kcal/mol and the “AH” value was -7.44 kcal/mol. Also, in series [2], the “Δδ ^13C^ϵ/^1H^ϵ Met 164” value was “+++ (0.2< +++ <0.25)”, the “Δδ Met 60” value was “++ (0.1 ppm < ++ <0.2 ppm)”, the “Δδ Met 115” value is on record as “+ (0< + <0.1 ppm)” and the “Δδ Met 164” value is reported as “+++ (0.2< +++ <0.25)”. Moreover, in “Aqueous solubility”, the “Aqueous Solubility” value was >50 mM.
Consider `COc1ccc2[nH]cc(C[C@H](NC(=O)[C@H]3CCC[C@H](N)C3)C(=O)N[C@@H](Cc3ccc(-c4ccccc4)cc3)C(=O)N[C@@H](CCCCNC(=N)N)C(=O)NCC(=O)Nc3ccc(CN4CCOCC4)cc3)c2c1` [Compound 4] ({Cyclohexanoyl(1S,3S-3-NH2)}-[Trp(5-OMe)][Bip][hArg]G-{NHPh(4-CH2-morpholino)}), for which the Kd in series [1] was found to be 100 nM. In series [1] (ITC, EphA4-LBD), the “-TΔS” value was -3.57 kcal/mol and the “AH” value was -5.99 kcal/mol. Further, the “Δδ ^13C^ϵ/^1H^ϵ Met 164” value in series [2] is “+++ (0.2< +++ <0.25)”.
As to `COc1ccccc1-c1ccc(C[C@H](NC(=O)[C@H](Cc2c[nH]c3ccc(O)cc23)NC(=O)[C@H]2CCC[C@H](N)C2)C(=O)N[C@@H](CCCCNC(=N)N)C(=O)NCC(=O)Nc2ccc(N3CCOCC3)cc2)cc1` [Compound 3, (1S,3S)-3-amino-N—((S)-1-(((S)-1-(((S)-6-guanidino-1-((2-((4-morpholinophenyl)amino)-2-oxoethyl)amino)-1-oxohexan-2-yl)amino)-3-(2′-methoxy-[1,1′-biphenyl]-4-yl)-1-oxopropan-2-yl)amino)-3-(5-hydroxy-1H-indol-3-yl)-1-oxopropan-2-yl)cyclohexane-1-carboxamide] ({Cyclohexanoyl(1S,3S-3-NH2)}-[Trp(5-OH)][Phe(4-(2-MeO-Ph))][hArg]G-{NH(4-morpholinophenyl)}), in series [1] (ITC, EphA4-LBD), the “-TΔS” value is -0.60 kcal/mol and the “AH” value is -8.92 kcal/mol. The Kd in series [1] (ITC, EphA4-LBD, read-out: Kd (nM)- ITC) is 106 nM. Also, in series [2], the “Δδ ^13C^ϵ/^1H^ϵ Met 164” value is “+ (0< + <0.1 ppm)”, the “Δδ Met 60” value was “+ (0< + <0.1 ppm)”, the “Δδ Met 115” value is “+ (0< + <0.1 ppm)” and the “Δδ Met 164” value is “+ (0< + <0.1 ppm)”. Also, the “Aqueous Solubility” value in the series “Aqueous solubility” is >50 mM.
With `N=C(N)NCCCC[C@H](NC(=O)[C@H](Cc1ccc(-c2ccccc2)cc1)NC(=O)[C@H](Cc1c[nH]c2ccc(O)cc12)NC(=O)[C@H]1CCC[C@H](N)C1)C(=O)NCC(=O)Nc1ccc(N2CCNCC2)cc1` [Compound 10] ({Cyclohexanoyl(1S,3S-3-NH2)}-[Trp(5-OH)][Bip][hArg]G-X3), the Kd in series [1] turned out to be 90 nM. For the same compound, in series [1] (ITC, EphA4-LBD), the “-TΔS” value was -1.35 kcal/mol and the “AH” value is -8.27 kcal/mol. Besides, the “Δδ ^13C^ϵ/^1H^ϵ Met 164” value in series [2] is “++++ (++++ >0.25 ppm)”.
In the case of `COc1ccc2[nH]cc(C[C@H](NC(=O)[C@H]3CCC[C@H](N)C3)C(=O)N[C@@H](Cc3ccc(-c4ccccc4OC)cc3)C(=O)N[C@@H](CCCCNC(=N)N)C(=O)NCC(=O)Nc3ccc(CN4CCOCC4)cc3)c2c1` [Compound 5] ({Cyclohexanoyl(1S,3S-3-NH2)}-[Trp(5-OMe)][Phe(4-(2-MeO-Ph))][hArg]G-{NHPh(4-CH2-morpholino)}), the Kd in series [1] stood at 163 nM. In series [1] (ITC, EphA4-LBD), the “-TΔS” value was -2.25 kcal/mol and the “AH” value was -7.00 kcal/mol. Besides, in series [2], the “Δδ ^13C^ϵ/^1H^ϵ Met 164” value was “++ (0.1 ppm < ++ < 0.2 ppm)”.
